Measurements reported in patent US7410975B2, “Small molecule toll-like receptor (TLR) antagonists” (Coley Pharmaceutical Group, Inc., priority 2003, dated 2008).
Where a name gives a salt, the structure may show the parent alone.

Biological target: T1, human TLR8 (hTLR8) (Homo sapiens, UniProt Q9NR97)
T1 construct: expressed in transfected cells
T1 sequence (Q9NR97 27-1041): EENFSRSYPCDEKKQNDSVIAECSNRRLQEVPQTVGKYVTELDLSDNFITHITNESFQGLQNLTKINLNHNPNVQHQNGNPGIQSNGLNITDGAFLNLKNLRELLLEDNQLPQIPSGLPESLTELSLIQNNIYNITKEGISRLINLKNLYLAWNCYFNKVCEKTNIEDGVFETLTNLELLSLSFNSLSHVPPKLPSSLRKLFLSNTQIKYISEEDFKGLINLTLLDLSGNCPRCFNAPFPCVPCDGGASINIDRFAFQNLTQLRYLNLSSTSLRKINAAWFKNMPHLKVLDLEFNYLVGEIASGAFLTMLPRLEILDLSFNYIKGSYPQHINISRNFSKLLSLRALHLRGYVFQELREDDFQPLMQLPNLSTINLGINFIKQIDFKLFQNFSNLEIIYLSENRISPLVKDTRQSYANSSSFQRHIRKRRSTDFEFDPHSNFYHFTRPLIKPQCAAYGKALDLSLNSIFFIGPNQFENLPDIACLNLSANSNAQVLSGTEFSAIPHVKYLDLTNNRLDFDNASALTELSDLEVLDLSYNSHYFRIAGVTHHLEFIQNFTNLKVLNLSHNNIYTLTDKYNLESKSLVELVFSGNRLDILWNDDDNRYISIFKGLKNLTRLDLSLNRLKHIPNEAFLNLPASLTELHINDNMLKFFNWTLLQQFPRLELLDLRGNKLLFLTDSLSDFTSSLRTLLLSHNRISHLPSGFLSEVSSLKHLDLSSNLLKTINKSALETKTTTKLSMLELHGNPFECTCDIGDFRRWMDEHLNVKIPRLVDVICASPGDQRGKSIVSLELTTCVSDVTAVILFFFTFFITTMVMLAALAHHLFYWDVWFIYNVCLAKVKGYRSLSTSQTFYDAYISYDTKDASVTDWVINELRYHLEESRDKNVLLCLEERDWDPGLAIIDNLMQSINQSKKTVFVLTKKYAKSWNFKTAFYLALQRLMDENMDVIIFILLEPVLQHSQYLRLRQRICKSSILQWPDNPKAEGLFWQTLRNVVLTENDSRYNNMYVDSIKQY
Assay: Antagonist screen, hTLR8-NFκB-293 cells, NF-κB-luciferase reporter, with EC50 of R848
Type: cell-based
Conditions: compound at 0.5, 5, 50 μg/ml; EC50 concentration of R848; 16 h; NF-κB-luciferase
Protocol: The method is described in greater detail as follows. The cells for each individual cell clone (hTLR3-NFκB-293, hTLR7-NFκB-293, hTLR8-NFκB-293 and hTLR9-NFκB-293) were counted and seeded one day before the stimulation at 1.5×10^4 cells per well in 96-well cell culture plates. To become adherent the cells were incubated after seeding overnight at 37° C. in 5% CO2 humidified air.
The screen for each compound was performed at the same time for all of the receptors TLR3, TLR7, TLR8 and TLR9. Up to fifteen test compounds, each assayed in duplicate at each of three different final concentrations (0.5 μg/ml, 5 μg/ml, and 50 μg/ml), were used for 16 h cell stimulation on a single multiwell culture plate. A 4× final concentration master plate was created to prepare the different test compounds before they were added to the cells.
Controls were added as duplicates individually for each cell clone on the cell culture plate. Positive controls were used as follows (final concentrations): 50 μg/ml poly(I:C) for hTLR3-NFκB-293; 8 μM resiquimod (R848) for hTLR7-NFκB-293; 30 μM R848 for hTLR8-NFκB-293; and 2.5 μM CpG-ODN 2006 for hTLR9-NFκB-293. Media alone was used as negative control. After addition of controls and small molecules, the cell clones were additionally stimulated with the EC50 concentration of the appropriate receptor-specific ligand.
The mean value of wells H2 and H5 (each with cells and EC50 concentration of the appropriate receptor-specific ligand) divided by the mean of wells H3 and H6 (each with cells alone) yielded the baseline response (i.e., fold induction of luciferase activity) to EC50 concentration of the appropriate receptor-specific ligand.
After 16 h stimulation the supernatant was removed and the cells treated with lysis buffer and stored at −80° C. before measuring.
For each screen result a graphical documentation was performed.
The baseline result (measured with addition of the EC50 concentration of the receptor-specific ligand) for each cell culture plate was measured as described above. Antagonistic effects were measured by down regulation compared to the baseline. Antagonists were scored as follows: • 13: compounds for which there was clear down regulation at 0.5 μg/ml, 5 μg/ml, and 50 μg/ml; • 12: compounds for which there was clear down regulation at 5 μg/ml and 50 μg/ml; • 11: compounds for which there was clear down regulation only at 50 μg/ml; • —: compounds for which there was no clear down regulation even at 50 μg/ml. Agonists
Results were expressed as fold induction over baseline luciferase activity measured in the absence of R848. […] Additional screening was performed in like manner using additional small molecules selected from another library or specifically prepared for this purpose. Scoring is reported as above but as applied to TLR8.

Structure (SMILES) | hTLR8 (inhibitory effect, antagonist score)
COC(=O)C1=CO[C@@H](C)[C@@H]2CN3CCc4c([nH]c5ccccc45)[C@@H]3C[C@H]12 [compound 593, Tetrahydroalstonine] | — (compounds for which there was no clear down regulation even at 50 μg/ml)
CC[C@]12CCCN3CCc4c(n(c5ccccc45)C(=O)C1)[C@@H]32 [compound 607, Eburnamonine] | — (compounds for which there was no clear down regulation even at 50 μg/ml)
Cc1nccc2c1[nH]c1cc(O)ccc12.Cl [compound 612, Harmol hydrochloride monohydrate] | 11 (compounds for which there was clear down regulation only at 50 μg/ml)
COc1ccc2c(c1)[nH]c1c(C)nccc12.Cl [compound 613, harmine hydrochloride] | 13 (compounds for which there was clear down regulation at 0.5 μg/ml, 5 μg/ml, and 50 μg/ml)
Cc1c2ccncc2c(C)c2c1[nH]c1ccccc12 [compound 614, Ellipticine] | 11 (compounds for which there was clear down regulation only at 50 μg/ml)
Cc1nccc2c1[nH]c1ccccc12 [compound 620, Harmane hydrochloride] | — (compounds for which there was no clear down regulation even at 50 μg/ml)
COc1ccc2[nH]c3c(c2c1)CCN=C3C [compound 621, Methoxy-6-harmalan] | — (compounds for which there was no clear down regulation even at 50 μg/ml)
CC[C@]12CCCN3CCc4c(n(c5ccccc45)[C@](O)(C(=O)OC)C1)[C@@H]32 [compound 636, Epivincamine] | — (compounds for which there was no clear down regulation even at 50 μg/ml)
Cl.Cl.c1ccc2c3c([nH]c2c1)C1C2CCC(C4CCCNC42)N1CC3 (stereo not shown) [compound 685, Nitrarine dihydorchloride] | — (compounds for which there was no clear down regulation even at 50 μg/ml)
CN(C)CCCN1c2ccccc2Sc2ccccc21.Cl [compound 693, Promazinehydrochloride] | — (compounds for which there was no clear down regulation even at 50 μg/ml)
CN1CCC(OC(c2ccccc2)c2ccccc2)CC1.Cl [compound 707, Diphenylpyralinehydrochloride] | — (compounds for which there was no clear down regulation even at 50 μg/ml)
CCCC(C(=O)OCCN(CC)CC)(c1ccccc1)c1ccccc1.Cl [compound 778, Proadifen hydrochloride] | 11 (compounds for which there was clear down regulation only at 50 μg/ml)
Cl.Clc1ccc(C(OCCN2CCCCC2)c2ccccc2)cc1 (stereo not shown) [compound 793, Cloperastinehydrochloride] | — (compounds for which there was no clear down regulation even at 50 μg/ml)
COc1ccc2c(c1)N(CC(C)CN(C)C)c1ccccc1S2.O=C(O)/C=C\C(=O)O (stereo not shown) [compound 797, Methotrimeprazinemaleat salt] | 11 (compounds for which there was clear down regulation only at 50 μg/ml)
CS(=O)(=O)O.OC(CCN1CCCCC1)(c1ccccc1)c1ccccc1 [compound 799, Pridinolmethanesulfonate salt] | — (compounds for which there was no clear down regulation even at 50 μg/ml)
C[N+]12CCC(CC1)C(OC(=O)C(O)(c1ccccc1)c1ccccc1)C2.[Br-] (stereo not shown) [compound 822, Clidinium bromide] | — (compounds for which there was no clear down regulation even at 50 μg/ml)

Structure (SMILES) | hTLR8 (inhibitory effect, antagonist score)
Clc1ccc(C(c2ccccc2Cl)C(Cl)Cl)cc1 (stereo not shown) [compound 833, Mitotane] | 11 (compounds for which there was clear down regulation only at 50 μg/ml)
CCN(CC)C(C)CN1c2ccccc2Sc2ccccc21.Cl (stereo not shown) [compound 840, Ethopropazinehydrochloride] | 11 (compounds for which there was clear down regulation only at 50 μg/ml)
CC(CN(C)C)CN1c2ccccc2Sc2ccccc21.CC(CN(C)C)CN1c2ccccc2Sc2ccccc21.O=C(O)C(O)C(O)C(=O)O (stereo not shown) [compound 842, Trimeprazine tartrate] | 11 (compounds for which there was clear down regulation only at 50 μg/ml)
COC(=O)[C@H]1[C@H]2C[C@@H]3c4[nH]c5cc(OC)ccc5c4CCN3C[C@H]2C[C@@H](OC(=O)c2cc(OC)c(OC)c(OC)c2)[C@@H]1OC [compound 875, Reserpine] | — (compounds for which there was no clear down regulation even at 50 μg/ml)
OCc1cc2c(cn1)[nH]c1ccccc12 [compound 878, 3-hydroxymethyl-beta-carboline] | — (compounds for which there was no clear down regulation even at 50 μg/ml)
O=C(O)c1cc(C(c2ccc(O)c(C(=O)O)c2)C(Cl)(Cl)Cl)ccc1O [compound 884] | 11 (compounds for which there was clear down regulation only at 50 μg/ml)
CN(CCO)C(=O)c1cccc2c1-c1ccccc1C2=O [compound 890] | 11 (compounds for which there was clear down regulation only at 50 μg/ml)
COC(=O)c1cccc2c1-c1ccccc1/C2=N/O [compound 904] | 13 (compounds for which there was clear down regulation at 0.5 μg/ml, 5 μg/ml, and 50 μg/ml)
O=C(O)c1ccccc1NC1CC=CC2=C1C(=O)c1ccccc1C2=O (stereo not shown) [compound 917] | — (compounds for which there was no clear down regulation even at 50 μg/ml)
O=C(O)c1cccc2c1/C(=N/O)c1ccccc1-2 [compound 918] | — (compounds for which there was no clear down regulation even at 50 μg/ml)
CCCCOC(=O)c1cc([N+](=O)[O-])cc2c1-c1cc(CO)c([NH+]([O-])O)cc1C2=C(C#N)C#N (stereo not shown) [compound 939] | — (compounds for which there was no clear down regulation even at 50 μg/ml)
O=C(O)c1cccc2c1-c1ccccc1/C2=N/Nc1ccc([N+](=O)[O-])cc1[N+](=O)[O-] [compound 944] | — (compounds for which there was no clear down regulation even at 50 μg/ml)
C=CCc1ccccc1OC1(c2ccccc2)OC(=O)c2ccccc21 (stereo not shown) [compound 957] | — (compounds for which there was no clear down regulation even at 50 μg/ml)
COC(=O)c1ccc(C2CC(=O)Nc3c2ccc2ccccc32)cc1 (stereo not shown) [compound 965] | — (compounds for which there was no clear down regulation even at 50 μg/ml)
O=C(O)c1ccc(C2(c3ccc(C(=O)O)cc3)OC(=O)c3ccccc32)cc1 [compound 970] | — (compounds for which there was no clear down regulation even at 50 μg/ml)
